Experimental data taken from patent US5731432A, “Inhibitors of adenosine monophosphate deaminase” (priority 1994, dated 1998).
Read-outs that look alike come from different tables or passages of the source.

Tests used:
ADA = target: T1, ADA (Homo sapiens, UniProt P00813); conditions: reported; kind of constant not stated; cited from earlier work
T1 sequence (P00813 1-363): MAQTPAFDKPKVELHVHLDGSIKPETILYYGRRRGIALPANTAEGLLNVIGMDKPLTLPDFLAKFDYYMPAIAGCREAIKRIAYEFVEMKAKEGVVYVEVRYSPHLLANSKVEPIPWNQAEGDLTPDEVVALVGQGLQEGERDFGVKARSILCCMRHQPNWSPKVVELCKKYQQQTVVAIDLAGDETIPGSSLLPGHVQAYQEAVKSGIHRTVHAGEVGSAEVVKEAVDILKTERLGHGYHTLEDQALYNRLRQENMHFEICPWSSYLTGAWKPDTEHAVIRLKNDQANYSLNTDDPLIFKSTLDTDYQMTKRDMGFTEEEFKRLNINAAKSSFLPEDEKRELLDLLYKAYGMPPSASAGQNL

AMPDA = conditions: reported; kind of constant not stated; cited from earlier work
[1] = target: AMPDA activity from porcine heart; experiment: AMP Deaminase Assay (Example A); assay type: biochemical; conditions: for Ki: porcine heart AMPDA, 37° C., pH 6.5, competitive inhibition assumed; for Selectivity Ratio: selectivity ratio=[ADA Ki/Km]/[AMPDA Ki/Km], K = 1,000
Description: Catalysis was initiated by the addition of enzyme to the otherwise complete reaction mixture, and terminated after 5 minutes by injection into an HPLC system. Activities were determined from the amount of IMP formed during 5 minutes.

[2] = target: T2, adenosine deaminase (ADA) from calf intestinal mucosa (Bos taurus, UniProt P56658); experiment: Adenosine Deaminase Assay (Example B); assay type: biochemical
T2 construct: adenosine deaminase (ADA) from calf intestinal mucosa; from tissue; host or cells: calf intestinal mucosa
T2 sequence (P56658 1-363): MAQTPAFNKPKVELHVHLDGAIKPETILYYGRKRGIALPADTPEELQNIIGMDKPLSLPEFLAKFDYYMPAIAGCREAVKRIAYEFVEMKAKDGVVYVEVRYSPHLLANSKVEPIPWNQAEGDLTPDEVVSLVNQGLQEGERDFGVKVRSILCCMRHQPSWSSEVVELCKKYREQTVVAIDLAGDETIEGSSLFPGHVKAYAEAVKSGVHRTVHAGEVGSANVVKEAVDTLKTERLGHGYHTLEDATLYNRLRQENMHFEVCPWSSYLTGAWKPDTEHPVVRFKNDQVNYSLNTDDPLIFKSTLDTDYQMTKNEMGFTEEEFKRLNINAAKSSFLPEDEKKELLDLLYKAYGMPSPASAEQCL
Description: Inhibition of adenosine deaminase (ADA) from calf intestinal mucosa was determined spectrophotometrically at pH 7.0 using one of the following two assays:
(1) Direct Assay: The reaction system mixture contained inhibitor, ~0.001 units ADA, and 40 mM potassium phosphate in 1 ml and at 37° C. The concentration of the substrate adenosine was varied from 20 to 100 μM.
The reaction was initiated by addition of adenosine and monitored continuously at 340 nm for 7 minutes as the decrease in absorbance reflects oxidation of NADH.

[3] = system: Neutrophil-myocyte adhesion; experiment: Inhibition of Neutrophil-Myocyte Adhesion (Example C); assay type: cell-based; conditions: read-out: Neutrophil-Myocyte Adhesion Inhibition IC50
Description: Isolated neutrophils and myocytes were stimulated with the cytokine, TNF-α, and incubated in the presence of the test compound. Neutrophil-myocyte adhesion was determined as described by […], et al., J. Clin. Invest.

isolated rat hearts = experiment: Functional recovery in isolated rat heart model of ischemia-reperfusion injury (Example D); conditions: low flow ischemia then 30 minutes reperfusion
Description: The ability of AMP deaminase inhibitors of the present invention to improve the recovery of post-ischemic function was examined in an isolated rat heart model of ischemia-reperfusion injury.
Isolated rat hearts were cannulated via the ascending aorta and attached to a perfusion apparatus according to the method of Langendorff. The hearts were perfused at a constant pressure of 100 cm of H2 O with a modified Krebs-Hanseleit buffer (pH 7.4) at 37° C. Left ventricular developed pressures (LVDP) were monitored continuously using a latex balloon attached to a pressure transducer. Coronary flows were measured gravimetrically by timed collection of pulmonary effluent. Following equilibration of the hearts for a period of 30 minutes, the hearts were subjected to […] of low flow ischemia, by reducing the perfusion pressure to 10 cm of H2 O, and then reperfused for 30 minutes by restoring the pressure to its original level (100 cm of H2 O). […] Compound 1 m provided recovery of LVDP to 83±2% compared to the placebo value of 65±2% when added to the perfusion to give a concentration of 0.3 μM.

Rat Focal Stroke Model = experiment: Rat model of ischemic brain injury / focal stroke (Example F); assay type: in vivo
Excerpt: Each rat is anesthetized with halothane and placed on a heating pad hooked up to a temperature regulator and connected to rectal probe. EEG electrodes are then inserted into the temporalis muscle bilaterally in between the eye and the ear. A midline incision is made to expose the left Common Carotid Artery (CCA). The internal Carotid Artery (ICA)is isolated and carefully separated from the adjacent vagus nerve. Following ligation of various vessels the ICA should be the only remaining extracranial branch of the CCA. Two 5-0 silk sutures are tied loosely around the external carotid artery (ECA)and microvascular clips placed on both the CCA (proximal to the bifurcation)and the ICA (in between the first and the second bifurcation). The ECA above the bifurcation is coagulated and the two sutures are then cut below the coagulation. A 25 mm length 4-0 nylon suture, its tip rounded by heating near a fine tipped cauterizer, is introduced into the ECA lumen. 20-22 mm of the suture is inserted into the ECA stump. The suture around the ECA is tightened to hold the occluding suture in place and EEC reading is checked to confirm occlusion by the appearance of a flat line. At this point the intraluminal suture has blocked the origin of the […] (MCA), occluding all sources of blood flow from the interior Carotid Artery (ICA), the […] (ACA), and the posterior cerebral artery (PCA). At 105 min later the suture is gently retracted under halothane anesthesia to allow blood flow back into the middle cerebral artery. The neck incision is closed and animals allowed to recover from anesthesia. At 24 hrs animals are evaluated for behavioral deficits, sacrificed, transcardial perfused, brains removed and TTC stained for visualization of infarcted region using a computer assisted system.
The application of compound 1d is shown in the time line diagram. Thirty minutes prior to induction of ischemia (SUTURE IN) Compound 1d in isotonic saline solution was infused for 15 min at a loading dose of 250 μg/kg/min (50 μl/min)followed by maintenance rate of 50 μg/kg/min for the remaining 12 hrs.

[4] = calf intestinal mucosa ADA, pH 7.0, read-out: ADA Ki
[5] = neutrophils and myocytes stimulated with TNF-α
[6] = Treated, Post reperfusion, mean ± sem

SMILES | Ki [1] [µM] | Ki [2, 4] [µM] | Selectivity Ratio [1] | IC50 [3, 5] [µM] | other results
OC[C@H]1O[C@@H](n2cnc3c2N=CNC[C@H]3O)[C@H](O)[C@@H]1O [Coformycin, coformycin] | – | – | – | – | inhibition of ADA (ADA): < 0.2 nM; inhibition of AMPDA (AMPDA): 1000 nM
CCCCCCCn1cnc2c1N=CNCC2O (stereo not shown) [compound 1a, 3-heptylcoformycin aglycone] | 10 | 0.35 | – | – | IC50 [3]: 12 ± 6 µM; recovery of LVDP (isolated rat hearts; 3 μM in perfusion, placebo 69±1%): 83±3%
CCCCCCCn1cnc2c1N=CNCC2(C)O (stereo not shown) [compound 1b, 3-heptyl-8-methylcoformycin aglycone] | 36 | 12 | 6 | – | –
CC(C)=CCC[C@H](C)CCn1cnc2c1N=CNCC2O (stereo partly drawn) [compound 1c, (3'S)-3-(3',7'-dimethyloct-6'-enyl)coformycin aglycone] | 1.1 | 1.9 | 29 | 5.1 ± 2.5 | –
OC1CNC=Nc2c1ncn2C1CCCCCC1 (stereo not shown) [compound 1d, 3-cycloheptylcoformycin aglycone] | 8 | 7.9 | 17 | 4.3 ± 1.3 | Blood Pressure (Rat Focal Stroke Model; [6]): 115 ± 4 mm Hg; Temperature (Rat Focal Stroke Model; [6]): 38.6 ± 0.2 °C; Blood Pressure (Rat Focal Stroke Model; Treated, Pre, mean ± sem): 102 ± 5 mm Hg; Temperature (Rat Focal Stroke Model; Treated, T = 0, mean ± sem): 37.4 ± 0.2 °C; Blood Pressure (Rat Focal Stroke Model; Treated, T = 60, mean ± sem): 84 ± 9 mm Hg; Temperature (Rat Focal Stroke Model; Treated, T = 60, mean ± sem): 37.5 ± 0.2 °C; pCO2 (Rat Focal Stroke Model; Treated, mean ± sem): 37.8 ± 1.3; pH (Rat Focal Stroke Model; Treated, mean ± sem): 7.379 ± 0.015; pO2 (Rat Focal Stroke Model; Treated, mean ± sem): 142.3 ± 10.0; effect on physiological parameters such as blood pressure, heart rate, body temperature and blood gases (Rat Focal Stroke Model; continuous infusion): no apparent effect; reduction of infarct volume (Rat Focal Stroke Model; infusion 250 μg/kg/min for 15 min then 50 μg/kg/min, vs control): 52%; infarct volume (Rat Focal Stroke Model; treated, n=8, control 139±31 (n=7), p=0.05): 71±28 mm^3
CC1(C)[C@H]2CC[C@H](Cn3cnc4c3N=CNCC4O)[C@@H]1C2 (stereo partly drawn) [compound 1e, (l'S,2'S,5'S)-3-(6',6'-dimethyl[3,1,1]-bicyclohept-2'-methyl)coformycin aglycone] | 1.7 | > 160 | > 1.6K | 24 ± 3 | –
Cc1ccccc1CCCn1cnc2c1N=CNCC2O (stereo not shown) [compound 1f, 3-(3'-(2"-methylphenyl)propyl)coformycin aglycone] | 2.1 | 0.042 | 0.34 | 1.4 ± 0.45 | –
CC1=Nc2c(ncn2CCCc2ccccc2C)C(O)CN1 (stereo not shown) [compound 1g, 5-methyl-3-(3'-(2"-methylphenyl)propyl)coformycin aglycone] | 11 | > 100 | > 150 | – | –
[N-]=[N+]=NC1CNC=Nc2c1ncn2CCCc1ccccc1 (stereo not shown) [compound 1h] | 6.6 | 0.063 | 0.16 | – | –
CCCOc1ccc(CCCn2cnc3c2N=CNCC3O)cc1 (stereo not shown) [compound 1i, 3-(3'-(4"-propoxyphenyl)propyl)coformycin aglycone] | 3.6 | 0.006 | 0.03 | – | –
O=C(O)C(CCCCn1cnc2c1NC=NCC2O)Cc1ccccc1 (stereo not shown) [compound 1j, 3-(5'-carboxy-6'-phenylhexyl)coformycin aglycone] | – | > 200 | – | 0.045 ± 0.01 | –
O=C(O)C(CCCCn1cnc2c1N=CNCC2O)C(=O)OCc1ccccc1 (stereo not shown) [compound 1k, 3-(5'-carboxy-5'-carbobenzyloxypentyl)coformycin aglycone] | 0.36 | > 1000 | > 47K | – | –
CC(CCCCn1cnc2c1N=CNCC2O)(C(=O)O)C(=O)NCc1ccccc1 (stereo not shown) [compound 1l, 3-(5'-carbox-N-benzylamido-5'-carboxyhexyl)coformycin aglycone] | 2.7 | > 1000 | > 6.3K | – | –
Cc1ccc(C(=O)O)cc1CCn1cnc2c1N=CNCC2O (stereo not shown) [compound 1m, 3-(2'-(3"-carboxy-6"-methylphenyl)ethyl)coformycin aglycone] | 0.097 | > 1000 | > 175K | – | IC50 [3]: 0.03 ± 0.01 µM; recovery of LVDP (isolated rat hearts; 0.3 μM in perfusion, placebo 65±2%): 83±2%
Cc1ccc(-c2nn[nH]n2)cc1CCn1cnc2c1N=CNCC2O (stereo not shown) [compound 1n, 3-(2'-(6"-methyl-3"-(tetrazol-5'"-yl)phenyl)ethyl)coformycin aglycone] | 1.6 | – | > 2.1K | – | Ki [2]: > 200 µM
O=C(O)c1cc(CCn2cnc3c2N=CNCC3O)cs1 (stereo not shown) [compound 1o, 3-(2'-(2"-carboxythiophen-4"-yl)ethyl)coformycin aglycone] | 2.2 | > 6 | 590 | 8 ± 2 | –
O=C(O)c1cc(CCn2cnc3c2N=CNCC3O)c2ccccc2c1 (stereo not shown) [compound 1p, 3-(2'-(3"-carboxynaphthyl)ethyl)coformycin aglycone] | 0.02 | > 1000 | > 850K | – | –
OC[C@H]1O[C@@H](n2cnc3c2NC=NC[C@H]3O)C[C@@H]1O [deoxycoformycin] | – | – | – | – | inhibition of AMPDA (AMPDA): 1000 nM
